Source: ChEMBL document CHEMBL5226363, “Alkaloids and Coumarins with Adiponectin-Secretion-Promoting Activities from the Leaves of Orixa japonica” (J Nat Prod, 2023)
Calls of active or inactive are those of the source. The calls are words filed in the database; no cut-off is given here.

Experiments:
Mesenchymal stem cells = assay: Cytotoxicity against human BMMSC cells assessed as reduction in cell viability at 10 uM incubated for 72 hrs by CCK8 assay; format: toxicity, cell-based
[1] = molecular target: T1, Peroxisome proliferator-activated receptor gamma (Homo sapiens, UniProt P37231); assay: Agonist activity at PPARgamma in human BMMSC cells assessed as promotion of adiponectin secretion by measuring increase in adiponectin level in presence of IDX medium by ELISA; format: cell-based
T1 sequence (P37231 whole entry): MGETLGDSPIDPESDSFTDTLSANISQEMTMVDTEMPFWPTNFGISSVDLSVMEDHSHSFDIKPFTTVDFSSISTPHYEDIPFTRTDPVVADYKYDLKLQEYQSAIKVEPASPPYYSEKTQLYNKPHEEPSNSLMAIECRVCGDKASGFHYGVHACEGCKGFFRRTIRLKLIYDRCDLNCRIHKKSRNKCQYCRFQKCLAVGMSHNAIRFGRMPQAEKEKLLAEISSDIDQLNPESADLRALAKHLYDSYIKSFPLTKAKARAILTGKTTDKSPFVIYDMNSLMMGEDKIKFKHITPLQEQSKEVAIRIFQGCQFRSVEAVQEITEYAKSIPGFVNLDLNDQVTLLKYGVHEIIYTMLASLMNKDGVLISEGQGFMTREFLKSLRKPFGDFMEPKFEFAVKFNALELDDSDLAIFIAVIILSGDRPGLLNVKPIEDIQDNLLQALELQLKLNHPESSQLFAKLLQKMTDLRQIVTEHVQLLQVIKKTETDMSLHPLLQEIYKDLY

[2] = molecular target: T2, Peroxisome proliferator-activated receptor delta (Homo sapiens) (UniProt Q03181); assay: Displacement of fluormone pan-PPARgreen from GST-tagged human PPARdelta ligand binding domain at 10 uM by LanthaScreen TR-FRET competitive binding assay
T2 sequence (whole entry): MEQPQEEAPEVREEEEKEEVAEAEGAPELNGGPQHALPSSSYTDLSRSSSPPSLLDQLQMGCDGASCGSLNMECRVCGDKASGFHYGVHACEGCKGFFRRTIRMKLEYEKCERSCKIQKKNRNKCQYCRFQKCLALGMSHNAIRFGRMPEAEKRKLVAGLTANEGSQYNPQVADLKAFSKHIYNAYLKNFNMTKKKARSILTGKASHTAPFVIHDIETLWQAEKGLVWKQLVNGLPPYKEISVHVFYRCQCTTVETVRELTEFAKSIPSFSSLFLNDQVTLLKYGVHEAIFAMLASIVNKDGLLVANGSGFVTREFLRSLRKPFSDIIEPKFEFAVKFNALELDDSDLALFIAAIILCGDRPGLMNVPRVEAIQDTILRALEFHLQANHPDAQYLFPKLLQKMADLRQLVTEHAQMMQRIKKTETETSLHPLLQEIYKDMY

[3] = molecular target: T3, Peroxisome proliferator-activated receptor alpha (Homo sapiens) (UniProt Q07869); assay: Displacement of fluormone pan-PPARgreen from GST-tagged human PPARalpha ligand binding domain at 10 uM by LanthaScreen TR-FRET competitive binding assay
T3 sequence (whole entry): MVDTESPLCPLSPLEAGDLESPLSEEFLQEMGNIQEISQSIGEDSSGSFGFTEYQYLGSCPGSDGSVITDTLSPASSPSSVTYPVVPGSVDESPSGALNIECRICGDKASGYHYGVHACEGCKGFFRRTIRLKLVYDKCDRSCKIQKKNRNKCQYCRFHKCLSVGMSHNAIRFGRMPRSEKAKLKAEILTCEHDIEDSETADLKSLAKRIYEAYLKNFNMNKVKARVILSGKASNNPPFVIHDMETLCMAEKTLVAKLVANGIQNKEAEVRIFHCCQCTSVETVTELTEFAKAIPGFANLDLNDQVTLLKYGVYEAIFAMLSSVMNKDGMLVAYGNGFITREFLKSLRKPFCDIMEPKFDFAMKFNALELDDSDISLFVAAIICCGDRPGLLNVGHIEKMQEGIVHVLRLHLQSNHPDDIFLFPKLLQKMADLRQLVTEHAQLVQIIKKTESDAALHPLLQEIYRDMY

[4] = molecular target: T1, Peroxisome proliferator-activated receptor gamma; assay: Partial agonist activity at GST-tagged PPAR-gamma ligand binding domain (unknown origin) assessed as recruitment of fluorescein-labeled SRC3 coactivator peptide by LanthaScreen TR-FRET Coactivator assay
[5] = molecular target: T1, Peroxisome proliferator-activated receptor gamma; assay: Displacement of fluormone pan-PPARgreen from GST-tagged human PPARgamma ligand binding domain by LanthaScreen TR-FRET competitive binding assay
[6] = molecular target: T4, Oxysterols receptor LXR-beta (Homo sapiens) (UniProt P55055); assay: Agonist activity at GST-tagged LXR-beta ligand binding domain (unknown origin) at 10 uM LanthaScreen TR-FRET Coactivator assay
T4 sequence (whole entry): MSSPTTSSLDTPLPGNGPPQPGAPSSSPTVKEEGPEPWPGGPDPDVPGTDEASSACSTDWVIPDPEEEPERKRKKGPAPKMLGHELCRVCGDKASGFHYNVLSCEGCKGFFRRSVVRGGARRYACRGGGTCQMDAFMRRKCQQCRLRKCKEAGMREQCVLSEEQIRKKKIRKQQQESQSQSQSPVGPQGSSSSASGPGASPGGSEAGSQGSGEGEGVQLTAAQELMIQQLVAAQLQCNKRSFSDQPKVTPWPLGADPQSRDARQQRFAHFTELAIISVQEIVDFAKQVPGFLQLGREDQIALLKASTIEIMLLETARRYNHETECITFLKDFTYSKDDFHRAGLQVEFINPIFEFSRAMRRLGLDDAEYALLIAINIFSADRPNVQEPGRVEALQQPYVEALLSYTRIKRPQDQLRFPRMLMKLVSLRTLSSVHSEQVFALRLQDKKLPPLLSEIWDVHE

[7] = molecular target: T5, Bile acid receptor (Homo sapiens) (UniProt Q96RI1); assay: Agonist activity at GST-tagged FXR ligand binding domain (unknown origin) at 10 uM LanthaScreen TR-FRET Coactivator assay
T5 sequence (whole entry): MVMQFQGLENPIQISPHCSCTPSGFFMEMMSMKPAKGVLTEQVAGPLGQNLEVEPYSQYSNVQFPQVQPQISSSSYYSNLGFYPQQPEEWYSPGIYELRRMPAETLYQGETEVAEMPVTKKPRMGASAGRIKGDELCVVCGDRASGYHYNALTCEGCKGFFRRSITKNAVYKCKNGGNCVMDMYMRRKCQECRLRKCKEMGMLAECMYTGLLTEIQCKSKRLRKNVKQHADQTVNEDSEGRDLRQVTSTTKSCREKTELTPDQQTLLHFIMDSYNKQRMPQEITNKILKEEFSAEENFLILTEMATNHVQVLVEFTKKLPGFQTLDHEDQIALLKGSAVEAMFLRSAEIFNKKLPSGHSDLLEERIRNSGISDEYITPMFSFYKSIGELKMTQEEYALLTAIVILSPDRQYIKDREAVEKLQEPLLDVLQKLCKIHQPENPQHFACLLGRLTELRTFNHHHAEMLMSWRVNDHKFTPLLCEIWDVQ

[8] = molecular target: T1, Peroxisome proliferator-activated receptor gamma; assay: Partial agonist activity at GST-tagged PPAR-gamma ligand binding domain (unknown origin) assessed as recruitment of fluorescein-labeled PRIP/RAP250 coactivator peptide by LanthaScreen TR-FRET Coactivator assay
[9] = molecular target: T6, Peroxisome proliferator-activated receptor gamma (Homo sapiens) (UniProt P37231); assay: Partial agonist activity at GST-tagged PPAR-gamma ligand binding domain (unknown origin) assessed as recruitment of fluorescein-labeled PRIP/RAP250 coactivator peptide at 10 uM by LanthaScreen TR-FRET Coactivator assay; conditions: filed as partial agonist
T6 sequence (whole entry): T1 sequence (P37231 whole entry)

[10] = molecular target: T1, Peroxisome proliferator-activated receptor gamma; assay: Partial agonist activity at PPARgamma in human BMMSC cells assessed as promotion of adiponectin secretion by measuring increase in adiponectin level in presence of IDX medium by ELISA; format: cell-based
[11] = molecular target: T1, Peroxisome proliferator-activated receptor gamma; assay: Partial agonist activity at GST-tagged PPAR-gamma ligand binding domain (unknown origin) assessed as recruitment of fluorescein-labeled SRC1 coactivator peptide by LanthaScreen TR-FRET Coactivator assay
[12] = molecular target: T6, Peroxisome proliferator-activated receptor gamma (Homo sapiens); assay: Partial agonist activity at PPARgamma in human BMMSC cells assessed as increase in size and number of intracellular lipid droplets during adipocyte differentiation in presence of IDX medium at 10 uM by Oil Red O/hematoxylin staining based analysis; format: cell-based; conditions: filed as partial agonist
[13] = molecular target: T6, Peroxisome proliferator-activated receptor gamma (Homo sapiens); assay: Partial agonist activity at GST-tagged PPAR-gamma ligand binding domain (unknown origin) assessed as inhibition of pioglitazone-induced recruitment of fluorescein-labeled PRIP/RAP250 coactivator peptide at 10 uM in presence of pioglitazone by LanthaScreen TR-FRET Coactivator assay; conditions: filed as partial agonist

Row | Structure (SMILES) | Activity (Mesenchymal stem cells) | also measured
1 | COc1c2c(cc3ccc(=O)oc13)C[C@@H](C(C)(C)OC(C)=O)O2 | Non-Toxic | 
2 | C=C(C)C(CC/C(C)=C/COc1c(OC)cc2ccc(=O)oc2c1OC)OO (configuration not stated) | Non-Toxic | 
3 | C=C[C@]1(C)C[C@H](O)[C@@H](C(C)(C)O)C[C@H]1C(=C)C | Non-Toxic | 
4 | C=C(C)C(O)CC/C(C)=C/COc1ccc2ccc(=O)oc2c1 (configuration not stated) | Non-Toxic | 
5 | COc1ccc(Cl)cc1C(=O)NCCc1ccc(S(=O)(=O)NC(=O)NC2CCCCC2)cc1 [GLYBURIDE] |  | EC50 [1]: 2.3 µM
6 | COc1cc2ccc(=O)oc2c(OC)c1OC/C=C(\C)CCC=C(C)C [ALTISSIMACOUMARIN D] | Non-Toxic | EC50 [1]: > 30 µM
7 | COc1cc2ccc(=O)oc2c(OC)c1OC/C=C(\C)C/C=C/C(C)(C)OO | Non-Toxic | 
8 | CC(C)=CCC/C(C)=C/COc1ccc2ccc(=O)oc2c1 | Non-Toxic | EC50 [1]: > 30 µM
9 | CC(=O)[C@H]1CC[C@@H]2[C@@H]1[C@H](C(C)C)CC[C@]2(C)O | Non-Toxic | 
10 | COc1ccc(-c2cc(=O)c3c(O)c(OC)ccc3n2C)cc1 | Non-Toxic | 
11 | COc1c(CC(=O)C(C)C)c(=O)[nH]c2c(OC)cccc12 | Non-Toxic | 
12 | COc1c2ccoc2c(OC)c2oc(=O)ccc12 [ISOPIMPINELLIN] | Non-Toxic | 
13 | COc1c(CC(=O)C(C)C)c(=O)n(C)c2ccccc12 | Non-Toxic | 
14 | COc1ccc(-c2cc(=O)c3c(O)cccc3n2C)cc1 | Non-Toxic | 
15 | COc1c(CC(=O)C(C)C)c(=O)n(C)c2c(OC)cccc12 [ORIXALONE A] | Non-Toxic | 
16 | COc1c2occc2cc2ccc(=O)oc12 [METHOXSALEN] | Non-Toxic | 
17 | COc1c(CC=C(C)C)c(=O)n(C)c2c(OC)cccc12 | Non-Toxic | 
18 | COc1c(CC(=O)C(C)C)c(=O)n(C)c2c(OC)c(O)ccc12 | Non-Toxic | 
19 | COc1c2ccoc2cc2oc(=O)ccc12 [BERGAPTEN] | Non-Toxic | 
20 | COc1c(CC=C(C)C)c(=O)n(C)c2ccccc12 | Non-Toxic | 
21 | COC(C)(C)/C=C/C/C(C)=C/COc1ccc2ccc(=O)oc2c1 | Non-Toxic | 
22 | CC(C)=CCOc1c2occc2cc2ccc(=O)oc12 [PENTOSALEN] | Non-Toxic | 
23 | O=c1ccc2cc3ccoc3cc2o1 [PSORALEN] | Non-Toxic | 
24 | COc1cc2ccc(=O)oc2cc1OC/C=C(\C)CCC=C(C)C | Non-Toxic | Activity [2]: inactive; Activity [3]: inactive; EC50 [4]: > 30 µM; Ki [5]: 10.7 µM; Activity [6]: inactive; Activity [7]: inactive; EC50 [8]: 17.3 µM; Activity [9]: Active; EC50 [10]: 25.8 µM; EC50 [11]: > 30 µM; Activity [12]: Active; Activity [13]: Active
25 | C=C[C@]1(C)C[C@H](OC(C)=O)[C@@H](C(C)(C)O)C[C@H]1C(=C)C | Non-Toxic | 
26 | C=C(C)C(O)COc1c2occc2cc2ccc(=O)oc12 (configuration not stated) | Non-Toxic | 
27 | COc1c(CC=C(C)C)c(=O)[nH]c2c(OC)c(O)ccc12 | Non-Toxic | 
28 | Cn1c(-c2ccccc2)cc(=O)c2c(O)cccc21 | Non-Toxic | 
